# Experiments:
# 5-HT2A receptor = molecular target: T1, 5-HT2A receptor (Homo sapiens, UniProt P28223); experiment: radioligand binding assay for 5-HT2A receptor ([3H]-ketanserin); conditions: competitive binding; for IC50: human cortex or recombinant 5-HT2A in CHO-K1, read-out: binding affinity to 5-HT2A serotonin receptor expressed as IC50 value; for Ki: human cortex or recombinant 5-HT2A in CHO-K1, read-out: binding affinity to 5-HT2A serotonin receptor, Ki value
# T1 construct: expressed in transfected cells; host or cells: CHO-K1 (alternatively human cortex tissue)
# Procedure: (§1) The effect of the compounds of the present invention on the neurochemical steady state was determined by in vitro investigations such as a radionuclide-marked radioligand binding assay for 5-HT2A (Bonhaus D. W. Br. J. Pharmacol. 1995, 115:622; Saucier C. J. Neurochem. 1997, 68:1998) and 5-HT2C receptors (Wolf W. A. J. Neurochem. 1997, 69:1449), in vitro binding assay for σ1 receptor (Thomson W. and Donn R. Arthritis Res. 2002, 4: 302-306) and by in vivo investigations in a tail suspension test (Vogel H. G. and Vogel W. H. Drug Discovery and Evaluation Pharmacological Assays, Springer 1997, 304), in amphethamine-induced hyperlocomotion in mice (Millan M. J. et al, 1998 J Pharmacol. Exp. Ther. 287: 167-186), in a forced swim test in mice (Porsolt R. D. et al. Arch. Int. Pharmacodyn. 1977, 229:327-336), in meta-chlorophenyl piperazine (m-CPP) test on rats (Drug Dev. Res. 1989, 18:119-144), and in apomorphine, tryptamine, norepinephrine (ATN) test in rats (Arch. Int. Pharmacodyn. 1977, 227:238-253).
# (§2) In Vitro Method for Determining Affinity for Binding to 5-HT2A and 5-HT2C Receptors
# (§3) A small concentration of a radioligand having a great affinity for binding to a receptor was incubated with a tissue sample enriched with a certain receptor (1-5 mg of tissue) in a buffered medium (0.2-5 mL). Recombinant human HT2A and HT2C receptors were expressed in CHO-K1 or COS-7 cells and were also used for competitive binding. During incubation the radioligand bound to the receptor. When a binding balance was achieved, the receptors to which the radioligand was bound were separated from those to which said ligand was not bound, and the radioactivity of the receptor/radioligand complex was measured. The interaction of the tested compounds with receptors was tested in competitive binding experiments. Various concentrations of tested compounds were added to the incubation mixture containing a prepared tissue enriched with corresponding receptors and the radioligand. The radioligand binding was inhibited by the test compounds proportionally to the affinity of a certain compound for the receptor and to the concentration of the compound.
# The radioligand used for the determination of binding to ^5-HT2A receptor was [^3H]-ketanserin and the tissue used was human cortex or recombinant 5-HT2A receptor expressed in CHO—K1.
# 5-HT2C receptor = molecular target: T2, 5-HT2C receptor (Homo sapiens, UniProt P28335); experiment: radioligand binding assay for 5-HT2C receptor ([3H]-mesulergine); conditions: competitive binding; for IC50: choroid plexus or recombinant 5-HT2C in CHO-K1, read-out: binding affinity to 5-HT2C serotonin receptor expressed as IC50 value; for Ki: choroid plexus or recombinant 5-HT2C in CHO-K1, read-out: binding affinity to 5-HT2C serotonin receptor, Ki value
# T2 construct: expressed in transfected cells; host or cells: CHO-K1 cells (alternatively choroid plexus tissue)
# T2 sequence (P28335 33-458): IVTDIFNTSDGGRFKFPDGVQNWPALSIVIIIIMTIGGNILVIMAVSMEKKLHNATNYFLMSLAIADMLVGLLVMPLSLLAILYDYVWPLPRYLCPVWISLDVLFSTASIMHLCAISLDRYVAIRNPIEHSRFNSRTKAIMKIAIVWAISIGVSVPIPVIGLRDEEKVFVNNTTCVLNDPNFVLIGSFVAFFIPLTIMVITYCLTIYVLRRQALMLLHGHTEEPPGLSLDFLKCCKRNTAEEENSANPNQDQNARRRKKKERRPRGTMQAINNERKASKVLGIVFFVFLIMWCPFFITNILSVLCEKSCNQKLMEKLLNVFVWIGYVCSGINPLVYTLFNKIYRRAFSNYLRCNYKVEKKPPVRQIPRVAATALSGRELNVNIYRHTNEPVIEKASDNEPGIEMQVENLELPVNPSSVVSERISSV
# Procedure: as §1, §2, §3
# The radioligand used for the determination of binding to 5-HT2C receptor was [^3H]-mesulergine and the tissue used was choroid plexus or recombinant 5-HT2C receptor expressed in CHO—K1 cells.
# T1 sequence (P28223 whole entry): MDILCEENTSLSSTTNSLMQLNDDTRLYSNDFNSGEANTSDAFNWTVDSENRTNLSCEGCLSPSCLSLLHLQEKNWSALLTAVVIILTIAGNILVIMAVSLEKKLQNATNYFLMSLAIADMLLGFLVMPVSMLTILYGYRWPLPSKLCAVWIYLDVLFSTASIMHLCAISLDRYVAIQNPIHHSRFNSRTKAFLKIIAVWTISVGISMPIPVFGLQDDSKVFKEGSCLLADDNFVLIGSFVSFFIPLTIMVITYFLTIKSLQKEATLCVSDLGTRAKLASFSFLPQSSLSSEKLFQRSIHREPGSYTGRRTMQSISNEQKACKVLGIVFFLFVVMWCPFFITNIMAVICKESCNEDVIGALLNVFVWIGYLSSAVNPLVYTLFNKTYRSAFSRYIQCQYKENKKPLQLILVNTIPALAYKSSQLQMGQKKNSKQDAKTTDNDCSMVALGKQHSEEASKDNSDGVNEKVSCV
Compound,IC50 (5-HT2A receptor) [nM],Ki (5-HT2A receptor) [nM],IC50 (5-HT2C receptor) [nM],Ki (5-HT2C receptor) [nM]
"Cc1nc2c(o1)-c1ccccc1Oc1ccc(Cl)cc1-2 [5-chloro-2-methyl-1,8-dioxa-3-aza-dibenzo[e,h]azulene]",< 200,< 100,< 200,< 100
"CN(C)CCOCc1nc2c(o1)-c1cc(Cl)ccc1Sc1ccccc1-2 [[2-(11-chloro-1-oxa-8-thia-3-aza-dibenzo[e,h]azulen-2-ylmethoxy)-ethyl]-dimethyl-amine]",< 200,< 100,< 200,< 100

# More lines, now with the values ahead:
IC50 (5-HT2A receptor) [nM],Ki (5-HT2A receptor) [nM],IC50 (5-HT2C receptor) [nM],Ki (5-HT2C receptor) [nM],Compound
< 200,< 100,< 200,< 100,"c1ccc2c(c1)Sc1ccccc1-c1ocnc1-2 [1-oxa-8-thia-3-aza-dibenzo[e,h]azulene]"
< 200,< 100,< 200,< 100,"CN(C)CCOCc1nc2c(o1)-c1ccccc1Sc1ccc(Cl)cc1-2 [[2-(5-chloro-1-oxa-8-thia-3-aza-dibenzo[e,h]azulen-2-ylmethoxy)-ethyl]-dimethyl-amine]"
< 200,< 100,< 200,< 100,"CN(C)CCOCc1nc2c(o1)-c1ccccc1Sc1ccccc1-2 [dimethyl-[2-(1-oxa-8-thia-3-aza-dibenzo[e,h]azulen-2-ylmethoxy)-ethyl]-amine]"

# Source: US20070111990A1, “3-Aza-1-oxa-dibenzo[e,h]azulenes for the treatment of central nervous system diseases and disorders” (GLAXOSMITHKLINE ISTRAZIVACKI CENTAR ZAGREB D.O.O., priority 2003, published 2007)
